Test results taken from US6737383B1, “Herbicidal oxadiazolidines” (priority 1999, dated 2004).

Columns and labels:
blackgrass = assay: Test B pre/postemergence blackgrass; type: in vivo, Alopecurus myosuroides; conditions: for Blackgrass plant response rating: scale of 0 to 10 where 0 is no effect and 10 is complete control
Summary of the method: (§1)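 Response is a visual 0-to-10 score relative to untreated plants, where 0 means no effect and 10 means complete control, taken twelve to sixteen days after application. Treatments went onto soil at planting and onto foliage of 1- to 4-leaf plants, using a surfactant-containing non-phytotoxic solvent.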

crabgrass = assay: Test B pre/postemergence crabgrass; type: in vivo, Digitaria sanguinalis; conditions: for Crabgrass plant response rating: scale of 0 to 10 where 0 is no effect and 10 is complete control
Summary of the method: as §1

rape = assay: Test B pre/postemergence rape; type: in vivo, Brassica napus; conditions: for Rape plant response rating: scale of 0 to 10 where 0 is no effect and 10 is complete control
Summary of the method: as §1

bedstraw = assay: Test B pre/postemergence bedstraw; type: in vivo, Galium aparine
Summary of the method: as §1

velvetleaf = assay: Test B pre/postemergence velvetleaf; type: in vivo, Abutilon theophrasti; conditions: for Velvetleaf plant response rating: scale of 0 to 10 where 0 is no effect and 10 is complete control
Summary of the method: as §1

wheat = assay: Test B pre/postemergence wheat; type: in vivo, Triticum aestivum; conditions: for Wheat plant response rating: scale of 0 to 10 where 0 is no effect and 10 is complete control
Summary of the method: as §1

morningglory = assay: Test B pre/postemergence morningglory; type: in vivo, Ipomoea hederacea; conditions: for Morningglory plant response rating: scale of 0 to 10 where 0 is no effect and 10 is complete control
Summary of the method: as §1

rice = assay: Test B flood test rice; type: in vivo, Oryza sativa
Summary of the method: (§2)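 Read-out is a visual response score from 0 (no effect) to 10 (complete control), assigned by comparison with untreated controls. Treatment was applied at the 2-leaf stage, and plants stayed in the greenhouse for twelve to sixteen days before scoring.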

giant foxtail = assay: Test B pre/postemergence giant foxtail; type: in vivo, Setaria faberii; conditions: for Giant foxtail plant response rating: scale of 0 to 10 where 0 is no effect and 10 is complete control
Summary of the method: as §1

smallflower flatsedge = assay: Test B flood test smallflower flatsedge; type: in vivo, Cyperus difformis
Summary of the method: as §2

purple nutsedge = assay: Test B pre/postemergence purple nutsedge; type: in vivo, Cyperus rotundus; conditions: for Nutsedge plant response rating: scale of 0 to 10 where 0 is no effect and 10 is complete control
Summary of the method: as §1

duck salad = assay: Test B flood test duck salad; type: in vivo, Heteranthera limosa
Summary of the method: as §2

wild oat = assay: Test B pre/postemergence wild oat; type: in vivo, Avena fatua; conditions: for Wild oats plant response rating: scale of 0 to 10 where 0 is no effect and 10 is complete control
Summary of the method: as §1

soybean = assay: Test B pre/postemergence soybean; type: in vivo, Glycine max; conditions: for Soybean plant response rating: scale of 0 to 10 where 0 is no effect and 10 is complete control
Summary of the method: as §1

surinam grass = assay: Test B pre/postemergence surinam grass; type: in vivo, Brachiaria decumbens; conditions: for B. signalgrass plant response rating: scale of 0 to 10 where 0 is no effect and 10 is complete control
Summary of the method: as §1

corn = assay: Test B pre/postemergence corn; type: in vivo, Zea mays; conditions: for Corn plant response rating: scale of 0 to 10 where 0 is no effect and 10 is complete control
Summary of the method: as §1

[1] = Postemergence, Rate 125 g/ha, scale 0 to 10, 0 is no effect, 10 is complete control
[2] = Postemergence, Rate 250 g/ha, scale 0 to 10, 0 is no effect, 10 is complete control
[3] = Preemergence, Rate 62 g/ha, scale 0 to 10 (0 no effect, 10 complete control)
[4] = Rate 500 g/ha, Postemergence, scale 0 to 10, 0 no effect, 10 complete control
[5] = Rate 62 g/ha, flood test species, Pre-emergence, visual evaluation after twelve to sixteen days
[6] = Rate 125 g/ha, under heading Pre-emergence, flood test species, visual evaluation after twelve to sixteen days
[7] = Rate 250 g/ha, Pre-emergence, flood-test species, scale 0 to 10, 0 is no effect, 10 is complete control
[8] = Rate 500 g/ha, Pre-emergence, flood test species, scale 0 to 10 (0 no effect, 10 complete control)

For `CC(C)N(C(=O)n1oc(=O)n(N2CCOCC2)c1=O)c1ccc(F)cc1` [Compound 385], the “Plant response rating, Blackgrass” value (blackgrass; [1]) was 0, the “Plant response rating, Blackgrass” value (blackgrass; [2]) was 2 and the “Plant response rating, Blackgrass” value (blackgrass; [3]) was 0. The “Blackgrass plant response rating (0 to 10 scale)” value (blackgrass; Preemergence, Rate 125 g/ha) was 0, the “Blackgrass plant response rating” value (blackgrass; Preemergence, Rate 250 g/ha) was 6 and the “Blackgrass plant response rating” value (blackgrass; Preemergence, Rate 500 g/ha) was 10. For the same molecule, the “Blackgrass plant response rating” value (blackgrass; Rate 62 g/ha, Postemergence) was 0, the “Plant response rating, Blackgrass” value (blackgrass; [4]) was 8 and the “Plant response rating, Crabgrass” value (crabgrass; [1]) was 7. The “Plant response rating, Crabgrass” value (crabgrass; [2]) was 9, the “Plant response rating, Crabgrass” value (crabgrass; [3]) was 3 and the “Crabgrass plant response rating (0 to 10 scale)” value (crabgrass; Preemergence, Rate 125 g/ha) was 9. The “Crabgrass plant response rating” value (crabgrass; Preemergence, Rate 250 g/ha) was 9, the “Crabgrass plant response rating” value (crabgrass; Preemergence, Rate 500 g/ha) was 10 and the “Crabgrass plant response rating” value (crabgrass; Rate 62 g/ha, Postemergence) was 6. The “Plant response rating, Crabgrass” value (crabgrass; [4]) was 9, the “Plant response rating, Rape” value (rape; [1]) was 0 and the “Plant response rating, Rape” value (rape; [2]) was 0. For the same molecule, the “Plant response rating, Rape” value (rape; [3]) was 0, the “Rape plant response rating (0 to 10 scale)” value (rape; Preemergence, Rate 125 g/ha) was 0 and the “Rape plant response rating” value (rape; Preemergence, Rate 250 g/ha) was 0. For the same molecule, the “Rape plant response rating” value (rape; Preemergence, Rate 500 g/ha) was 4, the “Rape plant response rating” value (rape; Rate 62 g/ha, Postemergence) was 0 and the “Plant response rating, Rape” value (rape; [4]) was 0. For the same molecule, the “Plant response rating, Bedstraw” value (bedstraw; [2]) was 0, the “Plant response rating, Bedstraw” value (bedstraw; [3]) was 0 and the “Plant response rating, Bedstraw” value (bedstraw; [4]) was 3. For the same molecule, the “Plant response rating, Velvetleaf” value (velvetleaf; [1]) was 0, the “Plant response rating, Velvetleaf” value (velvetleaf; [2]) was 0 and the “Plant response rating, Velvetleaf” value (velvetleaf; [3]) was 0. For the same molecule, the “Velvetleaf plant response rating (0 to 10 scale)” value (velvetleaf; Preemergence, Rate 125 g/ha) was 0, the “Velvetleaf plant response rating” value (velvetleaf; Preemergence, Rate 250 g/ha) was 3 and the “Velvetleaf plant response rating” value (velvetleaf; Preemergence, Rate 500 g/ha) was 3. The “Velvetleaf plant response rating” value (velvetleaf; Rate 62 g/ha, Postemergence) was 0, the “Plant response rating, Velvetleaf” value (velvetleaf; [4]) was 0 and the “Plant response rating, Wheat” value (wheat; [1]) was 0. The “Plant response rating, Wheat” value (wheat; [2]) was 0, the “Plant response rating, Wheat” value (wheat; [3]) was 0 and the “Wheat plant response rating (0 to 10 scale)” value (wheat; Preemergence, Rate 125 g/ha) was 0. For the same molecule, the “Wheat plant response rating” value (wheat; Preemergence, Rate 250 g/ha) was 3, the “Wheat plant response rating” value (wheat; Preemergence, Rate 500 g/ha) was 8 and the “Wheat plant response rating” value (wheat; Rate 62 g/ha, Postemergence) was 0. The “Plant response rating, Wheat” value (wheat; [4]) was 5, the “Plant response rating, Morningglory” value (morningglory; [1]) was 1 and the “Plant response rating, Morningglory” value (morningglory; [2]) was 2. The “Plant response rating, Morningglory” value (morningglory; [3]) was 0, the “Morningglory plant response rating (0 to 10 scale)” value (morningglory; Preemergence, Rate 125 g/ha) was 0 and the “Morningglory plant response rating” value (morningglory; Preemergence, Rate 250 g/ha) was 0. For the same molecule, the “Morningglory plant response rating” value (morningglory; Preemergence, Rate 500 g/ha) was 2, the “Morningglory plant response rating” value (morningglory; Rate 62 g/ha, Postemergence) was 1 and the “Plant response rating, Morningglory” value (morningglory; [4]) was 5. The “Plant response rating, Rice (0 to 10 scale, 0 is no effect, 10 is complete control)” value (rice; [5]) was 0, the “Rice plant response rating (0 to 10 scale, 0 is no effect, 10 is complete control)” value (rice; [6]) was 0 and the “Rice plant response rating” value (rice; [7]) was 0. For the same molecule, the “Rice plant response rating” value (rice; [8]) was 0, the “Plant response rating, Giant foxtail” value (giant foxtail; [1]) was 9 and the “Plant response rating, Giant foxtail” value (giant foxtail; [2]) was 9. The “Plant response rating, Giant foxtail” value (giant foxtail; [3]) was 3, the “Giant foxtail plant response rating (0 to 10 scale)” value (giant foxtail; Preemergence, Rate 125 g/ha) was 10 and the “Giant foxtail plant response rating” value (giant foxtail; Preemergence, Rate 250 g/ha) was 10. The “Giant foxtail plant response rating” value (giant foxtail; Preemergence, Rate 500 g/ha) was 10, the “Giant foxtail plant response rating” value (giant foxtail; Rate 62 g/ha, Postemergence) was 7 and the “Plant response rating, Giant foxtail” value (giant foxtail; [4]) was 9. For the same molecule, the “Plant response rating, S. Flatsedge (0 to 10 scale, 0 is no effect, 10 is complete control)” value (smallflower flatsedge; [5]) was 0, the “S. Flatsedge plant response rating (0 to 10 scale, 0 is no effect, 10 is complete control)” value (smallflower flatsedge; [6]) was 0 and the “S. Flatsedge plant response rating” value (smallflower flatsedge; [7]) was 0. For the same molecule, the “S. Flatsedge plant response rating” value (smallflower flatsedge; [8]) was 0, the “Plant response rating, Nutsedge” value (purple nutsedge; [1]) was 0 and the “Plant response rating, Nutsedge” value (purple nutsedge; [2]) was 0. The “Plant response rating, Nutsedge” value (purple nutsedge; [3]) was 0, the “Nutsedge plant response rating (0 to 10 scale)” value (purple nutsedge; Preemergence, Rate 125 g/ha) was 0 and the “Nutsedge plant response rating” value (purple nutsedge; Preemergence, Rate 250 g/ha) was 0. For the same molecule, the “Nutsedge plant response rating” value (purple nutsedge; Preemergence, Rate 500 g/ha) was 0, the “Nutsedge plant response rating” value (purple nutsedge; Rate 62 g/ha, Postemergence) was 0 and the “Plant response rating, Nutsedge” value (purple nutsedge; [4]) was 0. For the same molecule, the “Plant response rating, Ducksalad (0 to 10 scale, 0 is no effect, 10 is complete control)” value (duck salad; [5]) was 0, the “Ducksalad plant response rating (0 to 10 scale, 0 is no effect, 10 is complete control)” value (duck salad; [6]) was 0 and the “Ducksalad plant response rating” value (duck salad; [7]) was 0. The “Ducksalad plant response rating” value (duck salad; [8]) was 0, the “Plant response rating, Wild oats” value (wild oat; [1]) was 0 and the “Plant response rating, Wild oats” value (wild oat; [2]) was 2. The “Plant response rating, Wild oats” value (wild oat; [3]) was 0, the “Wild oats plant response rating (0 to 10 scale)” value (wild oat; Preemergence, Rate 125 g/ha) was 2 and the “Wild oats plant response rating” value (wild oat; Preemergence, Rate 250 g/ha) was 7. For the same molecule, the “Wild oats plant response rating” value (wild oat; Preemergence, Rate 500 g/ha) was 10, the “Wild oats plant response rating” value (wild oat; Rate 62 g/ha, Postemergence) was 0 and the “Plant response rating, Wild oats” value (wild oat; [4]) was 3. For the same molecule, the “Plant response rating, Soybean” value (soybean; [1]) was 2, the “Plant response rating, Soybean” value (soybean; [2]) was 2 and the “Plant response rating, Soybean” value (soybean; [3]) was 0. For the same molecule, the “Soybean plant response rating (0 to 10 scale)” value (soybean; Preemergence, Rate 125 g/ha) was 0, the “Soybean plant response rating” value (soybean; Preemergence, Rate 250 g/ha) was 0 and the “Soybean plant response rating” value (soybean; Preemergence, Rate 500 g/ha) was 0. For the same molecule, the “Soybean plant response rating” value (soybean; Rate 62 g/ha, Postemergence) was 2, the “Plant response rating, Soybean” value (soybean; [4]) was 2 and the “Plant response rating, B. signalgrass” value (surinam grass; [1]) was 3. For the same molecule, the “Plant response rating, B. signalgrass” value (surinam grass; [2]) was 6, the “Plant response rating, B. signalgrass” value (surinam grass; [3]) was 0 and the “B. signalgrass plant response rating (0 to 10 scale, 0 is no effect, 10 is complete control)” value (surinam grass; Preemergence, Rate 125 g/ha) was 0. For the same molecule, the “B. signalgrass plant response rating” value (surinam grass; Preemergence, Rate 250 g/ha) was 7, the “B. signalgrass plant response rating” value (surinam grass; Preemergence, Rate 500 g/ha) was 9 and the “B. signalgrass plant response rating” value (surinam grass; Rate 62 g/ha, Postemergence) was 0. The “Plant response rating, B. signalgrass” value (surinam grass; [4]) was 8, the “Plant response rating, Corn” value (corn; [1]) was 0 and the “Plant response rating, Corn” value (corn; [2]) was 0. For the same molecule, the “Plant response rating, Corn” value (corn; [3]) was 0, the “Corn plant response rating (0 to 10 scale)” value (corn; Preemergence, Rate 125 g/ha) was 0 and the “Corn plant response rating” value (corn; Preemergence, Rate 250 g/ha) was 0. The “Corn plant response rating” value (corn; Preemergence, Rate 500 g/ha) was 0, the “Corn plant response rating” value (corn; Rate 62 g/ha, Postemergence) was 0 and the “Plant response rating, Corn” value (corn; [4]) was 0.
